Assays:
Test in all cases: relative viability (nuclei count vs DMSO), 5 days (fraction); higher = more cells survive
Pifithrin_alpha = compound: CC1=CC=C(C=C1)C(=O)CN2C3=C(CCCC3)SC2=N [Pifithrin_alpha]
Method in brief: (§1)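 Lung cancer cell lines received five library-drug doses (not always all listed) spaced by √10, pinned on vehicle-anchored 1536-well plates after an overnight stay at 37 °C. Five days later, with no medium change, nuclei were Hoechst-stained, imaged at 4× and counted with MetaXpress. Viability is treated-well nuclei relative to vehicle-well nuclei, as a median across plates. Passing plates had control CV below 25% and at least one doubling.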

Axitinib = compound: CNC(=O)c1ccccc1Sc1ccc2c(/C=C/c3ccccn3)n[nH]c2c1 [Axitinib]
Method in brief: as §1

Bemcentinib = compound: Nc1nc(Nc2ccc3c(c2)CC[C@@H](N2CCCC2)CC3)nn1-c1cc2c(nn1)-c1ccccc1CCC2 [Bemcentinib]
Method in brief: as §1

[1] = compound: CC1=CC=C(C=C1)C(=O)CN2C3=C(CCCC3)SC2=N [Pifithrin_alpha] + Cc1nc(NC(=O)N2CCC[C@H]2C(N)=O)sc1-c1ccnc(C(C)(C)C(F)(F)F)c1 [Alpelisib] (partner 2 µM)
Method in brief: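 For relative viability, nuclei counts in treated wells were divided by those in vehicle wells. Lung cancer cell lines had been pin-tool dosed in 1536-well plates the day after seeding and cultured for 5 days, then fixed and stained in one step (final 0.05% Triton X-100, 1% formaldehyde, 1 ug/ml Hoechst) and imaged at 4×. Doses were one drug alone or a fixed anchor-drug dose plus five library-drug doses (not always all listed) in √10 steps, and values are duplicate-plate medians.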

Cell Line | relative viability (Pifithrin_alpha; 3.162 µM) | relative viability (Pifithrin_alpha; 10 µM) | relative viability (Pifithrin_alpha; 31.62 µM) | relative viability (Pifithrin_alpha; 100 µM) | relative viability (Axitinib; 0.005 µM) | relative viability (Axitinib; 0.01581 µM) | relative viability (Axitinib; 0.05 µM) | relative viability (Axitinib; 0.1581 µM) | relative viability (Axitinib; 0.5 µM) | relative viability (Bemcentinib; 0.04 µM) | relative viability (Bemcentinib; 0.1265 µM) | relative viability (Bemcentinib; 0.4 µM) | relative viability (Bemcentinib; 1.265 µM) | relative viability (Bemcentinib; 4 µM) | relative viability ([1]; first compound 3.162 µM) | relative viability ([1]; first compound 10 µM) | relative viability ([1]; first compound 31.62 µM) | relative viability ([1]; first compound 100 µM) | relative viability (Pifithrin_alpha; 1 µM) | relative viability ([1]; first compound 1 µM)
NCI-H1395 | 0.902 | 0.915 | 0.693 | 0.85 | 0.992 | 0.719 | 0.985 | 0.886 | 0.878 | 0.893 | 1.02 | 0.952 | 0.892 | 0.838 | 1.06 | 1.13 | 0.55 | 0.958 |  | 
NCI-H727 | 0.841 | 0.883 | 0.587 | 0.837 | 1.01 | 0.881 | 0.991 | 0.86 | 0.972 | 0.869 | 1.08 | 1.19 | 1.01 | 1.2 | 0.533 | 0.512 | 0.415 | 0.492 | 0.829 | 0.55
NCI-H838 | 0.807 | 0.854 | 0.735 | 0.643 | 0.992 | 0.944 | 1.01 | 0.933 | 1.03 | 0.946 | 1.08 | 1 | 1.02 | 1.03 | 0.834 | 0.812 | 0.694 | 0.733 | 0.856 | 0.909
NCI-H1755 | 0.964 | 0.882 | 0.841 | 1.05 | 1.02 | 1.01 | 1.05 | 0.992 | 0.997 | 1.06 | 1.05 | 1.02 | 1.05 | 1.08 | 0.93 | 0.942 | 0.75 | 1.02 | 0.919 | 0.99
EMC-BAC-2 | 1.02 | 0.617 | 0.799 | 0.93 | 1 | 0.925 | 0.977 | 0.957 | 0.771 | 0.956 | 0.939 | 1.07 | 0.955 | 0.978 | 0.776 | 0.738 | 0.56 | 0.822 | 0.716 | 0.719
EKVX | 0.861 | 0.858 | 0.738 | 0.695 | 1.01 | 0.963 | 0.917 | 0.88 | 0.99 | 0.793 | 1.09 | 1.02 | 1.03 | 1.03 | 0.743 | 0.567 | 0.583 | 0.548 | 0.984 | 0.918
NCI-H647 | 0.916 | 0.889 | 0.722 | 0.849 | 1.14 | 0.97 | 1.03 | 0.968 | 1.15 | 1.06 | 1.09 | 0.989 | 0.971 | 1.03 | 1.06 | 0.992 |  | 0.736 | 0.949 | 1.07
NCI-H358 | 0.94 | 0.924 | 0.733 | 0.945 | 0.947 | 0.957 | 1.05 | 0.87 | 1.14 | 0.915 | 0.941 | 0.997 | 1.01 | 1.07 | 0.958 | 0.87 | 0.566 | 0.687 | 0.825 | 0.895
LU99A | 0.89 | 0.903 |  | 0.869 | 0.903 | 1.02 | 1.03 | 0.883 | 0.904 | 0.903 | 1.02 | 0.98 | 1.02 | 1.02 | 0.576 | 0.543 |  | 0.646 | 0.941 | 0.503
Calu-6 | 1.05 | 1 | 0.655 | 0.899 | 1.08 | 0.999 | 1.03 | 1 | 1.12 | 1.07 | 1.15 | 1.13 | 1.08 | 1.05 | 0.918 | 0.961 | 0.622 | 0.857 | 1.06 | 0.884
NCI-H1563 | 0.996 | 0.981 | 0.957 | 0.895 | 0.999 | 0.887 | 0.973 | 0.924 | 0.891 | 0.993 | 0.961 | 0.971 | 1.14 | 1.05 | 0.919 | 0.936 | 0.922 | 0.82 | 0.999 | 0.967
NCI-H1734 | 0.99 | 0.915 | 0.751 | 0.937 | 0.998 | 0.951 | 1.03 | 0.9 | 1.03 | 0.91 | 1.01 | 0.982 | 0.996 | 1.08 | 0.699 | 0.638 | 0.576 | 0.682 | 0.885 | 0.75
HARA | 0.783 | 0.916 | 0.65 | 0.853 | 1.05 | 0.79 | 0.887 | 0.756 | 1.12 | 0.899 | 1.28 | 0.995 | 0.82 | 0.951 | 0.794 | 0.856 | 0.638 | 0.519 | 0.906 | 0.757
EBC-1 | 0.996 | 0.794 | 0.582 | 0.723 | 1.15 | 0.995 | 1.05 | 0.956 | 1.08 | 1.02 | 1.2 | 1.09 | 0.999 | 1.22 | 0.834 | 0.683 | 0.558 | 0.602 | 0.973 | 0.821
NCI-H1703 | 0.945 | 0.908 | 0.902 | 0.879 | 0.846 | 0.48 | 0.266 | 0.216 | 0.238 | 0.664 | 0.966 | 0.906 | 0.979 | 0.877 | 0.306 | 0.252 | 0.366 | 0.377 | 0.835 | 0.317
NCI-H2228 | 1.03 | 0.97 | 0.93 | 1.05 | 1.09 | 0.943 | 1.05 | 1.05 | 1.03 | 0.8 | 1.13 | 1.05 | 0.96 | 1.22 | 0.613 | 0.566 | 0.531 | 0.465 | 0.99 | 0.697

Source: the supplement of paper PMC10307832
